In patent publication US7368570B2, “Organometallic complexes as singlet oxygen sensitizers” (University of Southern California, priority 2003, dated 2008):

Experiments:
[1] = singlet oxygen luminescence quenching rate constants; format: physicochemical; conditions: for kq singlet oxygen quenching rate: Table 3, not marked MeOD, TPP in benzene or chloroform
Method: (§1) TPP in benzene or chloroform with OD 0.5-0.7 was used as blank/solvent solution to produce singlet oxygen. The intensity of ^1O2 luminescence signals was measured at 532 nm excitation in air-saturated solutions with a liquid nitrogen cooled germanium photodiode at 1268 nm. 0.02-0.5 mL quencher stock solution of Ir(III) complexes in […] was added to the blank solution. The decay trace of singlet oxygen was then re-measured, and the additions repeated 6-10 times. Singlet oxygen quenching rate constants by the Ir(III) complexes were obtained from the slopes of Stern Volmer plots (See FIG. 7).

[2] = from references (footnote e), cited from earlier work; for λem: emission
[3] = phosphorescence emission properties in solution; format: physicochemical; conditions: room temperature, from the phosphorescence spectrum
Source text: Table 3 provides quantum yields and singlet oxygen quenching rates for Ir(III) and Pt(II) complexes of this invention. Eem(eV)=the emission maximum energy in eV at room temperature, as determined from the phosphorescence spectrum; ΦPE=the quantum efficiency for emission in solution; τPE=the emission lifetime at room temperature or 77K (in solution).

[4] = quantum yield for singlet oxygen production from 1O2 luminescence at 1268 nm; format: physicochemical; conditions: for ΦΔ quantum yield for singlet oxygen generation: benzene, air-saturated; for ΦΔ532 nm: only measured if compounds absorb at 532 nm
Source text: The quantum yields for singlet oxygen production (ΦΔ) were obtained by measuring the intensity of the ^1O2 luminescence signal (λmax=1268 nm). Measurements were taken with 355 and 532 nm excitation (λ), in air-saturated solutions.
The quantum yields were obtained by measuring the intensity of the ^1O2 luminescence signal (λmax=1268 nm), with a liquid nitrogen cooled germanium photodiode. Measurements were taken at 355 and 532 nm excitation, in air-saturated solutions, with TPP, C60 and Perinaphthenone as references. The optical density of the photosensitizer solutions was generally kept between 0.05 and 0.4 at 355 nm excitation wavelength, and 0.03 and 0.2 at 532 nm excitation wavelength.

[5] = 355 nm, reference value; cited from earlier work
[6] = solubility; format: physicochemical
Method: as §1

[7] = oxidation and excited state redox potentials; format: physicochemical
[8] = 355 nm excitation, Table 3, not marked MeOD

iridium(III) bis(2-phenylbenzothiazolato-N, C^2)pyridyl chloride [BT-py]
singlet oxygen quenching, in words [1]: no measurable singlet oxygen quenching
kq(^1O2) singlet oxygen quenching rate ([1]; benzene): None
λem [2]: 558 nm
Eem emission maximum energy [3]: 2.23 eV
singlet oxygen quantum yield / production, in words [4]: high quantum yield
ΦΔ355 nm [4, 8]: 0.95 ± 0.09
ΦΔ quantum yield for singlet oxygen generation ([4]; 355 nm excitation): 0.95 ± 0.09
ΦΔ quantum yield for singlet oxygen generation ([4]; 532 nm excitation): 1.00 ± 0.09
ΦΔ532 nm ([4]; 532 nm excitation): 1.00 ± 0.09

O=C1C=Cc2cccc3cccc1c23 [Perinaphthenone]
ΦΔ of reference for quantum yield measurements [5]: 0.95

CC(=Nc1cc(C)cc(C)c1)C(C)=Nc1cc(C)cc(C)c1.[CH3][Pt][CH3] [(CyPh2)PtMe2]
kq singlet oxygen quenching rate [1]: (1.5 ± 0.1) × 10^9 M^−1s^−1
ΦΔ355 nm [4, 8]: 0
ΦΔ532 nm ([4]; 532 nm excitation): 0

CC(=O)C=C(C)[O][Ir]([c]1ccccc1-c1nc2ccccc2o1)[c]1ccccc1-c1nc2ccccc2o1 [(bo)2Ir(acac)]
kq singlet oxygen quenching rate [1]: (1.8 ± 0.3) × 10^5 M^−1s^−1
λem [2]: 525 nm
ΦPE quantum efficiency for emission in solution [2]: 0.25
Eem emission maximum energy [3]: 2.36 eV
ΦΔ355 nm [4, 8]: 0.76 ± 0.06

c12c3c4c5c1c1c6c7c2c2c8c3c3c9c4c4c%10c5c5c1c1c6c6c%11c7c2c2c7c8c3c3c8c9c4c4c9c%10c5c5c1c1c6c6c%11c2c2c7c3c3c8c4c4c9c5c1c1c6c2c3c41 [Photosensitizer C60]
ΦΔ of reference for quantum yield measurements [5]: 0.76

[CH3][Pt]1([CH3])[N]2C=CC=c3ccc4c(c32)[N]1C=CC=4 [(Phen)PtMe2]
kq singlet oxygen quenching rate [1]: (2.0 ± 0.2) × 10^9 M^−1s^−1
ΦΔ355 nm [4, 8]: 0
ΦΔ532 nm ([4]; 532 nm excitation): 0

c1ccc(-c2cccc[c]2[Ir]([c]2ccccc2-c2ccccn2)[c]2ccccc2-c2ccccn2)nc1 [(ppy)3Ir, Tris-(2-phenylpyridinato, N, C^2′) iridium (III)]
solubility remark ([6]; Table 3, not marked MeOD): Not soluble
E(Sen^+/*) excited state redox potential ([7]; vs. NHE, E00 estimated using Eem): −1.45 V
E(Sen^+/0) oxidation potential ([7]; vs. ferrocene/ferrocenium): 0.32 V
ΦΔ355 nm [4, 8]: 0.92 ± 0.07

NCC(=O)[O][Ir]([c]1ccc2ccccc2c1-c1nc2ccccc2s1)[c]1ccc2ccccc2c1-c1nc2ccccc2s1 [BSN-G, iridium(III) bis(2-(1-naphthyl)benzothiazolato-N,C^2)glycinate]
solubility remark ([6]; line marked measured in MeOD): Not soluble
kq singlet oxygen quenching rate [1]: (2.1 ± 0.5) × 10^6 M^−1s^−1
λem [2]: 606 nm
Eem emission maximum energy [3]: 2.05 eV
ΦΔ355 nm [4, 8]: 0.54 ± 0.02
ΦΔ quantum yield for singlet oxygen generation ([4]; 355 nm excitation): 0.54 ± 0.02
ΦΔ355 nm ([4]; 355 nm excitation, measured in MeOD): 0.62 ± 0.05
ΦΔ quantum yield for singlet oxygen generation ([4]; 532 nm excitation): 0.81 ± 0.06
ΦΔ532 nm ([4]; 532 nm excitation): 0.81 ± 0.06

[CH3][Pt][CH3].c1ccc(-c2ccccn2)nc1 [(bpy)PtMe2]
kq singlet oxygen quenching rate [1]: (2.4 ± 0.1) × 10^9 M^−1s^−1
ΦΔ355 nm [4, 8]: 0
ΦΔ532 nm ([4]; 532 nm excitation): 0

CC1=CC(c2ccccc2)=c2ccc3c4c2[N]1[Pt]([CH3])([CH3])[N]4C(C)=CC=3c1ccccc1 [(PhenPh2)PtMe2]
kq singlet oxygen quenching rate [1]: (1.7 ± 0.2) × 10^9 M^−1s^−1
ΦΔ355 nm [4, 8]: 0
ΦΔ532 nm ([4]; 532 nm excitation): 0
